Key:
human androgen receptor = biological target: T1, human androgen receptor (Homo sapiens, UniProt P10275); assay: Reporter assay of an androgen receptor responsive sequence (luciferase, transiently transfected HEK293 cells); format: cell-based; conditions: 24 hours incubation, relative to activity of 100 nM DHT, read-out: AR transcriptive activity (pEC50) (converted)
T1 construct: expressed in transfected cells; host or cells: HEK293
T1 sequence (P10275 1-920): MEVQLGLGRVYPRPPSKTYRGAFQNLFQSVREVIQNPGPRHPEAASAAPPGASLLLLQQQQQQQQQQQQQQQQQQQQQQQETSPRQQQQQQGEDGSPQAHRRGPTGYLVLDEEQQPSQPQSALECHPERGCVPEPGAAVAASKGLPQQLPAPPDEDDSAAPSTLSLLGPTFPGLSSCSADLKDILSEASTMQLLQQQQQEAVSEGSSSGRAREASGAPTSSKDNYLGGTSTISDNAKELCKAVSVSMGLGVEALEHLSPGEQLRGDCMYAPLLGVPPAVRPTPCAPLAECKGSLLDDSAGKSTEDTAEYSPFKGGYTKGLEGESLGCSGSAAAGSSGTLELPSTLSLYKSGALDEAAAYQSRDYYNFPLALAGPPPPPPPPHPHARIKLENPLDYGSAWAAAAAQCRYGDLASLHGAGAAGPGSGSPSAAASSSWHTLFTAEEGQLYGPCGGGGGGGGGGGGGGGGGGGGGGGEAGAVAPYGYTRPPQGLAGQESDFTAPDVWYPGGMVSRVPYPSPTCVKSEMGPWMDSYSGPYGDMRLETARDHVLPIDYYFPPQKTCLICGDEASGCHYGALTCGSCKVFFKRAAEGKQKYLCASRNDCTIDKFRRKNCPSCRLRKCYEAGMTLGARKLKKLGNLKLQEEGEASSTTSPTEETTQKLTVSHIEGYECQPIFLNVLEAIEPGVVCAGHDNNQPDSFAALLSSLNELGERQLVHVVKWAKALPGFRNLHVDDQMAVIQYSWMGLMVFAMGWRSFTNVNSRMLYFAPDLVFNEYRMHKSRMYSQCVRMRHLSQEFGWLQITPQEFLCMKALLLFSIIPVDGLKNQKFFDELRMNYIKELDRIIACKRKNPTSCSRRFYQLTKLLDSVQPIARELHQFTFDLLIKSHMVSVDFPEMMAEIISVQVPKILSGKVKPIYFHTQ
Procedure: Reporter Assay of an Androgen Receptor Responsive Sequence
To examine the agonist activity of compounds for androgen, a reporter assay using an androgen receptor responsive sequence was conducted.
Using Lipofectamine 2000 (Invitrogen), a plasmid mixture (pGL4-ARE (200 ng/well), pcDNA3-hAR (20 ng/well), pRL-TK (Promega) (150 ng/well)) was transiently transfected into HEK293 cells. The contents of the plasmid (mixture) are as follows:
pGL4-ARE is a reporter plasmid containing firefly luciferase sequence under the control of androgen receptor responsive sequence; pcDNA3-hAR is a plasmid containing full-length sequence of human androgen receptor under the constant control of CMV promoter; pRL-TK is a plasmid containing Renilla Luciferase sequence under the control of herpes simplex virus thymidine kinase and used as an internal standard for evaluations of transfection efficiency and compound toxicity.
After the incubation of Lipofectamine 2000 and the plasmid mixture in Opti-MEM for 20 minutes, the mixture was mixed with a cell suspension prepared with Opti-MEM in the similar way, and the cell suspension was plated to a 96-well plate at 20000 cells/well. The transfection was conducted by incubating the plates under the condition of 5% CO2 at 37° C. for 3 hours. Three hours after the transfection, the culture medium was removed and a compound solution prepared by DMEM supplemented with 5% FBS and treated with charcoal was added, and the mixture was incubated under the condition of 5% CO2 at 37° C. for 24 hours. After the incubation with the compound, luciferase activities were measured with a luminometer using Dual-Glo™ Luciferase Assay System (Promega). The measurement of the luciferase activities was performed in accordance with the protocol recommended by Promega. The activity of the compound was determined by comparing to the activity of 100 nM of DHT, and quantified the logarithm value (pEC50) of reciprocal value of the effective concentration of the compound which is equal to 50% of the activity value by applying a 4 parameter goodness-of-fit calculation.

[1] = biological target: T2, androgen receptor (AR-LBD) (Rattus norvegicus, UniProt P15207); assay: Evaluation of androgen receptor affinity (PolarScreen Androgen Receptor Competitor Assay Kit, Red; fluorescence polarization); conditions: 22° C. for 5 hours, relative to binding rate of 1 μM DHT, read-out: AR affinity (pEC50) (converted)
T2 construct: 5 μL of 2×AR-LBD/Fluoromone AL Red Complex contained in the kit; purchased Invitrogen
T2 sequence (P15207 651-882 limits assumed): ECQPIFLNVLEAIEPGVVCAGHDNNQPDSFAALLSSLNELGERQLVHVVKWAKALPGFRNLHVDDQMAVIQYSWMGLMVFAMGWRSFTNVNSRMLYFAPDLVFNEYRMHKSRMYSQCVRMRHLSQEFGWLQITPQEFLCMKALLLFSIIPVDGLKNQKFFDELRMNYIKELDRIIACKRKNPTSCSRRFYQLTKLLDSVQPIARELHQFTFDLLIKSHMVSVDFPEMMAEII
In short: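 Duplicate wells of test compound were mixed with the kit's rat AR-LBD–Fluoromone AL Red tracer complex and left 5 hours at 22 °C before polarization was read. A 4-parameter fit gave pEC50, with binding rate referenced to 1 μM dihydrotestosterone.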

Row | EC50 (human androgen receptor) [nM] | EC50 [1] [nM] | Structure (SMILES)
1 | 1000 | 126 | Cc1sc(N(Cc2ccc(C#N)cc2)c2ccc(C#N)cc2)nc1C(=O)NS(C)(=O)=O [Compound 10, 2-[4-cyano-N-[(4-cyanophenyl)methyl]anilino]-5-methyl-N-methylsulfonyl-thiazole-4-carboxamide]
2 | 50.1 | 25.1 | CSc1ccc(CN(c2ccc(C#N)cc2)c2nc(C(=O)NS(C)(=O)=O)c(C)s2)cc1 [Compound 11, 2-[4-cyano-N-[(4-methylsulfanylphenyl)methyl]anilino]-5-methyl-N-methylsulfonyl-thiazole-4-carboxamide]
3 | > 10000 | 316 | Cc1sc(N(Cc2ccc(S(C)(=O)=O)cc2)c2ccc(C#N)cc2)nc1C(=O)NS(C)(=O)=O [Compound 12, 2-[4-cyano-N-[(4-methylsulfonylphenyl)methyl]anilino]-5-methyl-N-methylsulfonyl-thiazole-4-carboxamide]
4 | 316 | 50.1 | Cc1sc(N(Cc2ccccc2F)c2ccc(C#N)cc2)nc1C(=O)NS(C)(=O)=O [Compound 13, 2-[4-cyano-N-[(2-fluorophenyl)methyl]anilino]-5-methyl-N-methylsulfonyl-thiazole-4-carboxamide]
5 | 50.1 | 79.4 | Cc1sc(N(Cc2cccc(F)c2)c2ccc(C#N)cc2)nc1C(=O)NS(C)(=O)=O [Compound 14, 2-[4-cyano-N-[(3-fluorophenyl)methyl]anilino]-5-methyl-N-methylsulfonyl-thiazole-4-carboxamide]
6 | 39.8 | 63.1 | Cc1sc(N(Cc2ccc(F)cc2)c2ccc(C#N)cc2)nc1C(=O)NS(C)(=O)=O [Compound 15, 2-[4-cyano-N-[(4-fluorophenyl)methyl]anilino]-5-methyl-N-methylsulfonyl-thiazole-4-carboxamide]
7 | 31.6 | 25.1 | Cc1cccc(CN(c2ccc(C#N)cc2)c2nc(C(=O)NS(C)(=O)=O)c(C)s2)c1 [Compound 16, 2-[4-cyano-N-(m-tolylmethyl)anilino]-5-methyl-N-methylsulfonyl-thiazole-4-carboxamide]
8 | 25.1 | 25.1 | Cc1ccc(CN(c2ccc(C#N)cc2)c2nc(C(=O)NS(C)(=O)=O)c(C)s2)cc1 [Compound 17, 2-[4-cyano-N-(p-tolylmethyl)anilino]-5-methyl-N-methylsulfonyl-thiazole-4-carboxamide]
9 | 50.1 | 25.1 | Cc1sc(N(Cc2cccc(Cl)c2)c2ccc(C#N)cc2)nc1C(=O)NS(C)(=O)=O [Compound 18, 2-[N-[(3-chlorophenyl)methyl]-4-cyano-anilino]-5-methyl-N-methylsulfonyl-thiazole-4-carboxamide]
10 | > 10000 | 158 | Cc1sc(N(CC2CCCC2)c2ccc(C#N)cc2)nc1C(=O)NS(C)(=O)=O [Compound 19, 2-[4-cyano-N-(cyclopentylmethyl)anilino]-5-methyl-N-methylsulfonyl-thiazole-4-carboxamide]
11 | 1580 | 63.1 | Cc1sc(N(CCOc2ccccc2)c2ccc(C#N)cc2)nc1C(=O)NS(C)(=O)=O [Compound 20, 2-[4-cyano-N-(2-phenoxyethyl)anilino]-5-methyl-N-methylsulfonyl-thiazole-4-carboxamide]
12 | 25.1 | 63.1 | Cc1sc(N(Cc2ccc(Cl)cc2)c2ccc(C#N)cc2)nc1C(=O)NS(C)(=O)=O [Compound 23, 2-[N-[(4-chlorophenyl)methyl]-4-cyano-anilino]-5-methyl-N-methylsulfonyl-thiazole-4-carboxamide]
13 | 200 | 20 | Cc1sc(N(Cc2cccc(C(F)(F)F)c2)c2ccc(C#N)cc2)nc1C(=O)NS(C)(=O)=O [Compound 24, 2-[4-cyano-N-[[3-(trifluoromethyl)phenyl]methyl]anilino]-5-methyl-N-methylsulfonyl-thiazole-4-carboxamide]
14 | 50.1 | 25.1 | Cc1sc(N(Cc2ccc3ccccc3c2)c2ccc(C#N)cc2)nc1C(=O)NS(C)(=O)=O [Compound 25, 2-[4-cyano-N-(2-naphthylmethyl)anilino]-5-methyl-N-methylsulfonyl-thiazole-4-carboxamide]
15 | 25.1 | 63.1 | Cc1sc(N(Cc2ccc3occc3c2)c2ccc(C#N)cc2)nc1C(=O)NS(C)(=O)=O [Compound 26, 2-[N-(benzofuran-5-ylmethyl)-4-cyano-anilino]-5-methyl-N-methylsulfonyl-thiazole-4-carboxamide]
16 | 2510 | 100 | Cc1sc(N(Cc2ccccc2)c2ccc(Cl)cc2)nc1C(=O)NS(C)(=O)=O [Compound 31, 2-(N-benzyl-4-chloro-anilino)-5-methyl-N-methylsulfonyl-thiazole-4-carboxamide]
17 | 3160 | 63.1 | Cc1sc(N(Cc2ccccc2)c2ccc(OC(F)(F)F)cc2)nc1C(=O)NS(C)(=O)=O [Compound 34, 2-[N-benzyl-4-(trifluoromethoxy)anilino]-5-methyl-N-methylsulfonyl-thiazole-4-carboxamide]
18 | 1260 | 50.1 | Cc1sc(N(Cc2ccccc2)c2ccc(Cl)c(Cl)c2)nc1C(=O)NS(C)(=O)=O [Compound 37, 2-(N-benzyl-3,4-dichloro-anilino)-5-methyl-N-methylsulfonyl-thiazole-4-carboxamide]
19 | 1260 | 251 | Cc1sc(N(CC2CCC(F)(F)CC2)c2ccc(C#N)cc2)nc1C(=O)NS(C)(=O)=O [Compound 39, 2-[4-cyano-N-[(4,4-difluorocyclohexyl)methyl]anilino]-5-methyl-N-methylsulfonyl-thiazole-4-carboxamide]
20 | 501 | 1000 | Cc1nc(CN(c2ccc(C#N)cc2)c2nc(C(=O)NS(C)(=O)=O)c(C)s2)cs1 [Compound 40, 2-[4-cyano-N-[(2-methylthiazol-4-yl)methyl]anilino]-5-methyl-N-methylsulfonyl-thiazole-4-carboxamide]
21 | 31.6 | 31.6 | Cc1sc(N(Cc2ccc(OC(F)F)cc2)c2ccc(C#N)cc2)nc1C(=O)NS(C)(=O)=O [Compound 41, 2-[4-cyano-N-[[4-(difluoromethoxy)phenyl]methyl]anilino]-5-methyl-N-methylsulfonyl-thiazole-4-carboxamide]
22 | 501 | 158 | Cc1ccccc1CN(c1ccc(C#N)cc1)c1nc(C(=O)NS(C)(=O)=O)c(C)s1 [Compound 45, 2-[4-cyano-N-(o-tolylmethyl)anilino]-5-methyl-N-methylsulfonyl-thiazole-4-carboxamide]

From patent US10689354B2, “Aminoazole derivative” (Teijin Pharma Limited, priority 2015, dated 2020)
